# In patent US20210078988A1, “MODULATORS OF INDOLEAMINE 2,3-DIOXYGENASE” (GLAXOSMITHKLINE INTELLECTUAL PROPERTY DEVELOPMENT LIMITED, priority 2017, published 2021):
# Target: T1, indoleamine 2, 3-dioxygenase (IDO1) (Homo sapiens, UniProt P14902)
# T1 construct: human peripheral blood mononuclear cells (PBMC) (PB003F; host or cells: human PBMC stimulated with IFN-gamma and LPS
# Experiment: PBMC IDO1 assay (kynurenine detection via mass spectrometry)
# Format: cell-based
# Details: human PBMC stimulated with IFN-γ and LPS, 2 days, kynurenine by mass spectrometry; read-out: IDO1 PBMC pIC50 (converted)
# Method: Compounds of the present invention were tested via high-throughput cellular assays utilizing detection of kynurenine via mass spectrometry and cytotoxicity as end-points. For the mass spectrometry and cytotoxicity assays, human peripheral blood mononuclear cells (PBMC) (PB003F; AIICells®, Alameda, Calif.) were stimulated with human interferon-γ (IFN-γ) (Sigma-Aldrich Corporation, St. Louis, Mo.) and lipopolysaccharide from Salmonella minnesota (LPS) (Invivogen, San Diego, Calif.) to induce the expression of indoleamine 2, 3-dioxygenase (IDO1). Compounds with IDO1 inhibitory properties decreased the amount of kynurenine produced by the cells via the tryptophan catabolic pathway. Cellular toxicity due to the effect of compound treatment was measured using CellTiter-Glo® reagent (CTG) (Promega Corporation, Madison, Wis.), which is based on luminescent detection of ATP, an indicator of metabolically active cells.
# In preparation for the assays, test compounds were serially diluted 3-fold in DMSO from a typical top concentration of 5 mM and plated at 0.5 μL in 384-well, polystyrene, clear bottom, tissue culture treated plates with lids (Greiner Bio-One, Kremsmunster, Austria) to generate 11-point dose response curves. Low control wells (0% kynurenine or 100% cytotoxicity) contained either 0.5 μL of DMSO in the presence of unstimulated (-IFN-γ/-LPS) PBMCs for the mass spectrometry assay or 0.5 μL of DMSO in the absence of cells for the cytotoxicity assay, and high control wells (100% kynurenine or 0% cytotoxicity) contained 0.5 μL of DMSO in the presence of stimulated (+IFN-γ/+LPS) PBMCs for both the mass spectrometry and cytotoxicity assays.
# Frozen stocks of PBMCs were washed and recovered in RPMI 1640 medium (Thermo Fisher Scientific, Inc., Waltham, Mass.) supplemented with 10% v/v heat-inactivated fetal bovine serum (FBS) (Thermo Fisher Scientific, Inc., Waltham, Mass.), and 1× penicillin-streptomycin antibiotic solution (Thermo Fisher Scientific, Inc., Waltham, Mass.). The cells were diluted to 1,000,000 cells/mL in the supplemented RPMI 1640 medium. 50 μL of either the cell suspension, for the mass spectrometry assay, or medium alone, for the cytotoxicity assay, were added to the low control wells, on the previously prepared 384-well compound plates, resulting in 50,000 cells/well or 0 cells/well respectively. IFN-γ and LPS were added to the remaining cell suspension at final concentrations of 100 ng/ml and 50 ng/ml respectively, and 50 μL of the stimulated cells were added to all remaining wells on the 384-well compound plates. The plates, with lids, were then placed in a 37° C., 5% CO2 humidified incubator for 2 days.
# Following incubation, the 384-well plates were removed from the incubator and allowed to equilibrate to room temperature for 30 minutes. For the cytotoxicity assay, CellTiter-Glo® was prepared according to the manufacturer's instructions, and 40 μL were added to each plate well. After a twenty minute incubation at room temperature, luminescence was read on an EnVision® Multilabel Reader (PerkinElmer Inc., Waltham, Mass.). For the mass spectrometry assay, 10 μL of supernatant from each well of the compound-treated plates were added to 40 μL of acetonitrile, containing 10 μM of an internal standard for normalization, in 384-well, polypropylene, V-bottom plates (Greiner Bio-One, Kremsmunster, Austria) to extract the organic analytes. Following centrifugation at 2000 rpm for 10 minutes, 10 μL from each well of the acetonitrile extraction plates were added to 90 μL of sterile, distilled H2O in 384-well, polypropylene, V-bottom plates for analysis of kynurenine and the internal standard on the RapidFire 300 (Agilent Technologies, Santa Clara, Calif.) and 4000 QTRAP MS (SCIEX, Framingham, Mass.). MS data were integrated using Agilent Technologies' RapidFire Integrator software, and data were normalized for analysis as a ratio of kynurenine to the internal standard. […]
# T1 sequence (P14902 whole entry): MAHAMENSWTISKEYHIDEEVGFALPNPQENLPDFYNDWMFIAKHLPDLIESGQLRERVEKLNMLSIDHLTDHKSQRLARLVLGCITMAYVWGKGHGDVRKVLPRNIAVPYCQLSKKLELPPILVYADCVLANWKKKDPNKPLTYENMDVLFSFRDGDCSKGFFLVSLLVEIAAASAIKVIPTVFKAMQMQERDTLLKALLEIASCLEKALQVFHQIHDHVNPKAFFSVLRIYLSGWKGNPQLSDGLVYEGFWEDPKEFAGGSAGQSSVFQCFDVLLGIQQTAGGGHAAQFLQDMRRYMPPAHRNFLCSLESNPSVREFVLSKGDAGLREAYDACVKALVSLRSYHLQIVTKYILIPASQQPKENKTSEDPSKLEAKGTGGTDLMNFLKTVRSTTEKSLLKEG
row,IC50,SMILES
1,7.94 nM,"CCc1ccc(C(=O)NC(CC2CCN(C(=O)OC(C)(C)C)CC2)c2ccccc2)s1 (stereo not shown) [Example 1, tert-butyl 4-(2-(5-ethylthiophene-2-carboxamido)-2-phenylethyl)piperidine-1-carboxylate]"
2,7.94 nM,"CC(C)(C)OC(=O)N1CCC(CC(NC(=O)c2ccc(Br)s2)c2ccccc2)CC1 (stereo not shown) [Example 2, tert-butyl 4-(2-(5-bromothiophene-2-carboxamido)-2-phenylethyl)piperidine-1-carboxylate]"
3,10 nM,"CC(C)(C)OC(=O)N1CCC(CC(NC(=O)c2ccc(Cl)s2)c2ccccc2)CC1 (stereo not shown) [Example 3, tert-butyl 4-(2-(5-chlorothiophene-2-carboxamido)-2-phenylethyl)piperidine-1-carboxylate]"
4,3.98 nM,"C#Cc1ccc(C(=O)NC(CC2CCN(C(=O)OC(C)(C)C)CC2)c2ccccc2)s1 (stereo not shown) [Example 4, tert-butyl 4-(2-(5-ethynylthiophene-2-carboxamido)-2-phenylethyl)piperidine-1-carboxylate]"
5,7.94 nM,"C#Cc1ccc(C(=O)NC(CC2CCN(C(=O)OC(C)(C)C)CC2)c2ccccc2)cc1 (stereo not shown) [Example 5, tert-butyl 4-(2-(4-ethynylbenzamido)-2-phenylethyl)piperidine-1-carboxylate]"
6,10 nM,"C#Cc1ccc(C(=O)NC(CC2CCN(C(=O)OC(C)(C)C)CC2)c2ccccc2)cc1F (stereo not shown) [Example 6, tert-butyl 4-(2-(4-ethynyl-3-fluorobenzamido)-2-phenylethyl)piperidine-1-carboxylate]"
7,6.31 nM,"CCOC(=O)N1CCC(CC(NC(=O)c2ccc(Cl)s2)C2CC2)CC1 (stereo not shown) [Example 7, ethyl 4-(2-(5-chlorothiophene-2-carboxamido)-2-cyclopropylethyl)piperidine-1-carboxylate]"
8,6.31 nM,"CC(C)(C)OC(=O)N1CCC(C[C@H](NC(=O)c2ccc(Cl)s2)C2CC2)CC1 [Example 8, (S)-tert-butyl 4-(2-(5-chlorothiophene-2-carboxamido)-2-cyclopropylethyl)piperidine-1-carboxylate]"
9,5.01 nM,"Cc1ccc(C(=O)N[C@@H](CC2CCN(C(=O)OC(C)(C)C)CC2)C2CC2)s1 [Example 9, (S)-tert-butyl 4-(2-cyclopropyl-2-(5-methylthiophene-2-carboxamido)ethyl)piperidine-1-carboxylate]"
10,5.01 nM,"CCc1ccc(C(=O)N[C@@H](CC2CCN(C(=O)OC(C)(C)C)CC2)C2CC2)s1 [Example 10, (S)-tert-butyl 4-(2-cyclopropyl-2-(5-ethylthiophene-2-carboxamido)ethyl)piperidine-1-carboxylate]"
11,5.01 nM,"CCOC(=O)N1CCC(C[C@H](NC(=O)c2ccc(C)s2)C2CC2)CC1 [Example 11, (S)-ethyl 4-(2-cyclopropyl-2-(5-methylthiophene-2-carboxamido)ethyl)piperidine-1-carboxylate]"
12,3.16 nM,"CCOC(=O)N1CCC(C[C@H](NC(=O)c2ccc(Cl)s2)C2CC2)CC1 [Example 12, ethyl (S)-4-(2-(5-chlorothiophene-2-carboxamido)-2-cyclopropylethyl)piperidine-1-carboxylate]"
13,7.94 nM,"COC(=O)N1CCC(C[C@H](NC(=O)c2ccc(Cl)s2)C2CC2)CC1 [Example 13, (S)-methyl 4-(2-(5-chlorothiophene-2-carboxamido)-2-cyclopropylethyl)piperidine-1-carboxylate]"
14,3.98 nM,"CC(C)OC(=O)N1CCC(C[C@H](NC(=O)c2ccc(Cl)s2)C2CC2)CC1 [Example 14, isopropyl (S)-4-(2-(5-chlorothiophene-2-carboxamido)-2-cyclopropylethyl)piperidine-1-carboxylate]"
15,3.98 nM,"COc1ccc(C(CC2CCN(C(=O)OC(C)(C)C)CC2)NC(=O)c2ccc(Cl)s2)cn1 (stereo not shown) [Example 15, tert-butyl 4-(2-(5-chlorothiophene-2-carboxamido)-2-(6-methoxypyridin-3-yl)ethyl)piperidine-1-carboxylate]"
16,0.794 nM,"COc1ccc([C@H](CC2CCN(C(=O)OC(C)(C)C)CC2)NC(=O)c2ccc(Cl)s2)cn1 [Example 16, tert-butyl (S)-4-(2-(5-chlorothiophene-2-carboxamido)-2-(6-methoxypyridin-3-yl)ethyl)piperidine-1-carboxylate]"
17,7.94 nM,"COc1ccc([C@H](CC2CCN(C(=O)OC(C)(C)C)CC2)NC(=O)c2ccc(F)cc2)cn1 [Example 17, tert-butyl (S)-4-(2-(4-fluorobenzamido)-2-(6-methoxypyridin-3-yl)ethyl)piperidine-1-carboxylate]"
18,6.31 nM,"CC(C)CC(CC1CCN(C(=O)OC(C)(C)C)CC1)NC(=O)c1ccc(Cl)s1 (stereo not shown) [Example 18, tert-butyl 4-(2-(5-chlorothiophene-2-carboxamido)-4-methylpentyl)piperidine-1-carboxylate]"
19,3.98 nM,"COc1ccc([C@H](CC2CCN(C(=O)OC(C)(C)C)CC2)NC(=O)c2ccc(Cl)cc2)cn1 [Example 19, tert-butyl (S)-4-(2-(4-chlorobenzamido)-2-(6-methoxypyridin-3-yl)ethyl)piperidine-1-carboxylate]"
20,2 nM,"COc1ccc([C@H](CC2CCN(C(=O)OC(C)(C)C)CC2)NC(=O)c2ccc(C)s2)cn1 [Example 20, tert-butyl(S)-4-(2-(6-methoxypyridin-3-yl)-2-(5-methylthiophene-2-carboxamido)ethyl)piperidine-1-carboxylate]"
21,1.58 nM,"COc1ccc([C@H](CC2CCN(C(=O)OC(C)C)CC2)NC(=O)c2ccc(Cl)s2)cn1 [Example 21, isopropyl (S)-4-(2-(5-chlorothiophene-2-carboxamido)-2-(6-methoxypyridin-3-yl)ethyl)piperidine-1-carboxylate]"
22,2 nM,"COc1ccc([C@H](CC2CCN(C(=O)OC(C)C)CC2)NC(=O)c2ccc(Cl)cc2)cn1 [Example 22, isopropyl (S)-4-(2-(4-chlorobenzamido)-2-(6-methoxypyridin-3-yl)ethyl)piperidine-1-carboxylate]"
23,3.98 nM,"COc1ccc([C@H](CC2CCN(C(=O)OC(C)(C)C)CC2)NC(=O)c2ccc(Br)cc2)cn1 [Example 23, tert-butyl (S)-4-(2-(4-bromobenzamido)-2-(6-methoxypyridin-3-yl)ethyl)piperidine-1-carboxylate]"
24,3.16 nM,"CCc1ccc(C(=O)N[C@@H](CC2CCN(C(=O)OC(C)(C)C)CC2)c2ccc(OC)nc2)s1 [Example 24, tert-butyl (S)-4-(2-(5-ethylthiophene-2-carboxamido)-2-(6-methoxypyridin-3-yl)ethyl)piperidine-1-carboxylate]"
25,3.16 nM,"COc1ccc([C@H](CC2CCN(C(=O)OC(C)(C)C)CC2)NC(=O)c2ccc(F)s2)cn1 [Example 25, tert-butyl (S)-4-(2-(5-fluorothiophene-2-carboxamido)-2-(6-methoxypyridin-3-yl)ethyl)piperidine-1-carboxylate]"
26,7.94 nM,"Cc1ccc(C(=O)NC(CC(C)C)CC2CCN(C(=O)OC(C)(C)C)CC2)s1 (stereo not shown) [Example 26, tert-butyl 4-(4-methyl-2-(5-methylthiophene-2-carboxamido)pentyl)piperidine-1-carboxylate]"
27,10 nM,"CC(C)CC(CC1CCN(C(=O)OC(C)(C)C)CC1)NC(=O)c1ccc(Br)cc1 (stereo not shown) [Example 27, tert-butyl 4-(2-(4-bromobenzamido)-4-methylpentyl)piperidine-1-carboxylate]"
28,7.94 nM,"CC(C)CC(CC1CCN(C(=O)OC(C)(C)C)CC1)NC(=O)c1ccc(Br)s1 (stereo not shown) [Example 28, tert-butyl 4-(2-(5-bromothiophene-2-carboxamido)-4-methylpentyl)piperidine-1-carboxylate]"
